Data on three compounds can be found in EPA's ToxValDB 9.5.

Several values for one entry are separate records, joined by “and”; a condition that tells them apart may be missing. Equal entries are not always repeated.

The test system of this data set is Rattus norvegicus.
[1] abbreviates: reproduction developmental, duration: 9 days, inhalation, F, Crl:CD(SD) BR, generation: P0, P0: Whole Body: Maternal Body Weight Change.
[2] abbreviates: reproduction developmental, duration: 9 days, inhalation, F, Sprague-Dawley, generation: P0, P0: General Toxicity: Whole Body: Clinical Observations + P0: General Toxicity: Whole Body: Maternal Body Weight Change.
[3] abbreviates: short-term, duration: 4 weeks, inhalation, F, Wistar, Multi-organ: Inorganic Phosphorous (PHOS), Blood.
[4] abbreviates: short-term, duration: 4 weeks, inhalation, M, Wistar, Blood: Partial Thromboplastin Time (PTT) + Liver: Cytoplasmic Vacuolation, Fatty Hepatocellular.
Setting [5] is: subchronic, duration: 90 days, inhalation, F, RccHan (Wist), Blood: Large Unstained Cells + Blood: Lymphocyte + Blood: Monocytes.
Where [6] appears, read: subchronic, duration: 90 days, inhalation, F, Wistar, General Toxicity: Whole Body: Body Weight Change + Immune: Blood: Large Unstained Cells + Immune: Blood: Lymphocyte + Immune: Blood: ….
The mark [7] stands for this setting: subchronic, duration: 90 days, inhalation, F, Wistar, Immune: Blood: Large Unstained Cells + Immune: Blood: Lymphocyte + Immune: Blood: Monocytes + Immune: Blood: White Blood Cell (WBC).
The mark [8] stands for this setting: subchronic, duration: 90 days, inhalation, M/F, Wistar, Immune: Blood: Basophils + Immune: Blood: Eosinophils + Immune: Blood: Neutrophils.
Where [9] appears, read: subchronic, duration: 90 days, inhalation, M, RccHan (Wist), Blood: Lymphocyte + Blood: Monocytes + Blood: White Blood Cell (WBC).
Setting [10] is: subchronic, duration: 90 days, inhalation, M, Wistar, General Toxicity: Whole Body: Body Weight Change + Immune: Blood: Large Unstained Cells + Immune: Blood: Lymphocyte + Immune: Blood: ….
[11] abbreviates: subchronic, duration: 90 days, inhalation, M, Wistar, Immune: Blood: Large Unstained Cells + Immune: Blood: Lymphocyte + Immune: Blood: Monocytes + Immune: Blood: White Blood Cell (WBC).
[12] abbreviates: short-term, duration: 3 days, injection, subcutaneous, F, Crj:CD, uterus: uterine dry weight (absolute).
The mark [13] stands for this setting: short-term, duration: 3 days, injection, subcutaneous, F, Sprague-Dawley, uterus: absolute blotted uterine weight.
Where [14] appears, read: short-term, duration: 10 days, oral, gavage, M, BrlHan:WIST, body weight.
[15] abbreviates: short-term, duration: 10 days, oral, gavage, M, BrlHan:WIST, male accessory sex gland: BC/LA weight (relative).
Where [16] appears, read: short-term, duration: 10 days, oral, gavage, M, BrlHan:WIST, male accessory sex gland: relative bulbourethral gland weight in the presence of TP + male accessory sex gland: relative seminal vesicle ….
The mark [17] stands for this setting: short-term, duration: 10 days, oral, gavage, M, BrlHan:WIST, male accessory sex gland: relative ventral prostate weight in the presence of TP.
[18] abbreviates: short-term, duration: 28 days, oral, gavage, F, Sprague-Dawley, Liver: Liver Weight, Absolute + Liver: Liver Weight, Relative + Thyroid: Thyroid Gland Weight, Relative + Whole Body: Body Weight, Absolute….
The mark [19] stands for this setting: short-term, duration: 28 days, oral, gavage, F, Sprague-Dawley, Pituitary: Thyroid stimulating hormone (TSH) + Thyroid: Thyroxine (T4), Free (Free T4).
Setting [20] is: short-term, duration: 28 days, oral, gavage, M, Sprague-Dawley, Epididymis: Epididymis Weight, Absolute + Epididymis: Epididymis Weight, Relative + Liver: Liver Weight, Relative + Liver: Liver, Abnormal ….
Where [21] appears, read: short-term, duration: 28 days, oral, gavage, M, Sprague-Dawley, Epididymis: Epididymis, Abnormal Size + Pituitary: Thyroid stimulating hormone (TSH) + Prostate: Prostate, Abnormal Size + Seminal Vesicles….

The term LOAEL denotes the lowest dose or exposure tested at which an adverse effect was seen. The term NOAEL denotes the highest dose or exposure tested at which no adverse effect was seen. With `C=CC(F)(F)C(F)(F)C(F)(F)C(F)(F)F` [3,3,4,4,5,5,6,6,6-Nonafluorohexene], the NEL (developmental, duration: 9 days, inhalation, M/F, Crl:CD(SD) BR, generation: F1, F1: Uterus: Fetuses, Dead + F1: Uterus: Fetuses, Live + F1: Whole Body: Body Weight, Fetal + F1: Whole Body: External Abnormalities + F1: …) is 704000 mg/m3 and 705000 mg/m3; the NEL (reproduction developmental, duration: 9 days, inhalation, F, Crl:CD(SD) BR, generation: P0, P0: Liver: Liver Weight, Unspecified + P0: Ovary: Corpora Lutea + P0: Uterus: Implantation + P0: Uterus: Resorptions, Early + P0: Uterus: …) is 704000 mg/m3 and 705000 mg/m3; the NEL under setting [1] is 10100 mg/m3; the NEL (short-term, duration: 4 weeks, inhalation, F, Wistar, Adrenal: Adrenal Gland Weight, Absolute + Adrenal: Adrenal Gland Weight, Relative + Blood: Partial Thromboplastin Time (PTT) + Blood: …) stood at 101000 mg/m3; the NEL under setting [3] was 20100 mg/m3; the NEL (short-term, duration: 4 weeks, inhalation, M, Wistar, Adrenal: Adrenal Gland Weight, Absolute + Adrenal: Adrenal Gland Weight, Relative + Blood: Prothrombin Time (PT) + Kidney: Kidney Weight, …) was 101000 mg/m3. Moreover, the NEL is, setting by setting: under setting [4], 20100 mg/m3; under setting [5], 10100 mg/m3; (subchronic, duration: 90 days, inhalation, F, RccHan (Wist), Blood: White Blood Cell (WBC) + Whole Body: Body Weight Change) 103000 mg/m3; (subchronic, duration: 90 days, inhalation, M/F, RccHan (Wist), Blood: Activated Partial Thromboplastin Time (APTT) + Blood: Basophils + Blood: Calcium (CA), Blood + Blood: Chloride (CL), Blood + Blood: …) 103000 mg/m3; (subchronic, duration: 90 days, inhalation, M, RccHan (Wist), Blood: Large Unstained Cells + Whole Body: Body Weight Change) 103000 mg/m3; under setting [9], 30600 mg/m3. For the same compound, the LOAEL reads like this: (developmental, duration: 9 days, inhalation, Sprague-Dawley, generation: F1, F1: Developmental: Skeleton: Skeletal Malformation + F1: Developmental: Skeleton: Skeletal Ossification Variations + F1: Developmental: Soft…) 705000 mg/m3 and 704000 mg/m3; (reproduction developmental, duration: 9 days, inhalation, F, Sprague-Dawley, generation: P0, P0: Developmental: Uterus: Implantation + P0: Developmental: Uterus: Resorptions, Early + P0: Developmental: Uterus: Resorptions, Late + P0…) 705000 mg/m3 and 704000 mg/m3; under setting [2], 705000 mg/m3 and 704000 mg/m3; under setting [6], 30600 mg/m3; under setting [7], 30600 mg/m3; (subchronic, duration: 90 days, inhalation, M/F, Wistar, Endocrine: Blood: Glucose (GLU) + Endocrine: Blood: Triglycerides (TRIG) + Endocrine: Serum: Cholesterol (CHOL), Total + General Toxicity: …) 30600 mg/m3. Besides, the LOAEL was 30600 mg/m3 under setting [8], 30600 mg/m3 under setting [10] and 30600 mg/m3 under setting [11]. The no observed adverse effect level (NOAEL) (developmental, duration: 9 days, inhalation, Sprague-Dawley, generation: F1, F1: Developmental: Whole Body: External Abnormalities) turned out to be 70000 mg/m3; the no-observed-adverse-effect level (NOAEL) under setting [2] came to 10100 mg/m3; the NOAEL (subchronic, duration: 90 days, inhalation, F, Wistar, General Toxicity: Whole Body: Body Weight Change) turned out to be 103000 mg/m3; the no observed adverse effect level (NOAEL) under setting [6] worked out at 10100 mg/m3; the NOAEL under setting [7] worked out at 10100 mg/m3; the no observed adverse effect level (NOAEL) under setting [8] came to 10100 mg/m3. In addition, the no observed adverse effect level (NOAEL) runs as follows: (subchronic, duration: 90 days, inhalation, M, Wistar, General Toxicity: Whole Body: Body Weight Change) 103000 mg/m3; under setting [10], 10100 mg/m3; under setting [11], 10100 mg/m3. The LEL under setting [1] was 704000 mg/m3 and 705000 mg/m3; the LEL under setting [3] is 101000 mg/m3; the LEL under setting [4] is 101000 mg/m3; the LEL under setting [5] came to 30600 mg/m3; the LEL under setting [9] was determined as 103000 mg/m3.
In the case of `CCC(C)(c1ccc(O)cc1)c1ccc(O)cc1` [Bisphenol B], the LOEL runs as follows: under setting [12], 200 mg/kg-day; under setting [13], 200 mg/kg-day; under setting [14], 600 mg/kg-day; under setting [15], 200 mg/kg-day; under setting [16], 600 mg/kg-day; under setting [17], 200 mg/kg-day. The NOEL was found to be 20 mg/kg-day under setting [12]; 20 mg/kg-day under setting [13]; 200 mg/kg-day under setting [14]; 600 mg/kg-day (short-term, duration: 10 days, oral, gavage, M, BrlHan:WIST, body weight in the presence of TP + body weight the absence of TP + male accessory sex gland: relative bulbourethral gland weight in the …); 50 mg/kg-day under setting [15]; 600 mg/kg-day (short-term, duration: 10 days, oral, gavage, M, BrlHan:WIST, male accessory sex gland: Cowper's gland weight (relative) + male accessory sex gland: glans penis weight (relative) + male accessory sex …). For the same compound, the NOEL runs as follows: under setting [16], 200 mg/kg-day; under setting [17], 50 mg/kg-day.
As to `FC(F)(I)C(F)(F)C(F)(F)C(F)(F)I` [Perfluoro-1,4-diiodobutane], the lowest observed adverse effect level (LOAEL) is, setting by setting: under setting [18], 30 mg/kg-day; under setting [19], 10 mg/kg-day; under setting [20], 30 mg/kg-day; under setting [21], 10 mg/kg-day; (short-term, duration: 28 days, oral, gavage, M, Sprague-Dawley, Thyroid: Triiodothyronine, Free (Free T3)) 1 mg/kg-day. Further, the NOAEL runs as follows: under setting [18], 10 mg/kg-day; (short-term, duration: 28 days, oral, gavage, F, Sprague-Dawley, Liver: Liver, Abnormal Area(s) + Liver: Liver, Abnormal Shape + Multi-organ: Follicle stimulating hormone (FSH) + Multi-organ: Luteinizing …) 30 mg/kg-day; under setting [19], 3 mg/kg-day; under setting [20], 10 mg/kg-day; under setting [21], 3 mg/kg-day; (short-term, duration: 28 days, oral, gavage, M, Sprague-Dawley, Liver: Liver Weight, Absolute + Liver: Liver, Abnormal Area(s) + Liver: Liver, Abnormal Shape + Liver: Liver, Abnormal Size + Multi-organ: …) 30 mg/kg-day.
